Data from patent publication US9840494B2, “Quinazoline derivative” (Tianjin Hemay Oncology Pharmaceutical Co., Ltd., priority 2013, dated 2017).
Marks after values point to notes of the source that are not given here.

Key:
[1] = system: A431 human epidermal carcinoma xenograft; assay: A431 human epidermal carcinoma xenograft model; type: in vivo, nude mice; conditions: for Tumor Weight (x ± S.D.) / Tumor Inhibitor Rate / Relative Tumor Volume (x ± S.D.) / T/C / Tumor Volume (x ± S.D.): A431 xenograft; for Tumor Inhibitor Rate: by tumor weight; for Relative Tumor Volume (x ± S.D.) / T/C / Tumor Volume (x ± S.D.): end of the assay
Method: Tumor cells were cultured in an incubator at 37° C. with 5% CO2 using MEM medium containing 10% inactivated fetal calf serum, 100 U/ml penicillin and 100 µg/ml streptomycin. The tumor cells in logarithmic growth phase were collected, adjusted to an appropriate density and injected subcutaneously into nude mice (0.2 ml per mouse). An xenograft model was established after a tumor was formed in the nude mice and passaged in vivo for more than three generations.
The above-mentioned tumor-bearing mice were sacrificed by cervical dislocation. The tumor was taken out and cut into small tumor pieces (about 2 mm×2 mm×2 mm) under sterile conditions. The small tumor pieces were inoculated subcutaneously into nude mice with a trocar. […] The animals in each group were subjected to intragastric administration once a day for 14 consecutive days. The day of grouping is assigned as day 0.
Tumor volume is calculated as: volume =0.5×long diameter×short diameter^2. The relative tumor volume (RTV) was calculated based on the measurements as: RTV=Vt/V0, wherein V0 is the tumor volume measured when the animals were grouped to be administrated (i.e., d0), and Vt is the tumor volume when each measurement was taken. Relative tumor proliferation rate T/C was calculated based on relative tumor volume, in which T is the mean value of the relative tumor volume of the treatment group, and C is the mean value of the relative tumor volume of the solvent control group. T/C was calculated as follows: T/C=TRTV/CRTV×100% (TRTV: RTV of the treatment group; CRTV:
RTV of the solvent control group) Inhibition rate (%)=(mean tumor weight of the solvent control group−mean tumor weight of the treatment group)/mean tumor weight of the solvent control group×100%. Percentage of body weight change=Wn/W0×100% (Wn: mean body weight of experimental animals in each group at day n, W0: mean body weight of experimental animals in each group at day 0).
One-Way ANOVA test was conducted in SPSS13.0, performing statistical analysis between groups.

[2] = system: human head and neck cancer cell lines Fadu; assay: In vitro inhibitory action on human tumor cells, Fadu (MTT); type: cell-based; conditions: 72 h, MTT assay, usually 3 days
Method: Human epidermoid carcinoma cell line A431, human non-small cell lung cancer cell line HCC827, head and neck cancer cell lines Fadu and human pancreatic cancer cell line AsPC-1 were purchased from Cell Bank, Chinese Academy of Sciences.
3.2 Cell culture method: cells were cultured in the complete medium at 37° C. under 5% CO2 and saturated humidity until logarithmic growth phase, i.e., adherent cells substantially approach complete confluence, and then collected for subsequent assay. For the adherent cells, they were firstly digested with trypsin/EDTA to detach.
3.3 A certain number of cells were seeded into 96-well cell culture plates (hereinafter referred to as 96-well plates). […] Finally, total cellular protein in the wells was determined using SRB assay, or cell viability was determined with MTT assay.
3.3.1 The cell seeding concentration was determined by cell growth curve assay which completely simulates compound inhibition assay process. […]
3.4 Dilution and addition of compounds: the concentration of DMSO that can be tolerant by the cells was determined by DMSO tolerance assay, and thereby selecting the dilution and addition methods of compounds. The effects of different concentrations of DMSO on cell growth were determined by DMSO tolerance assay. […] Two methods are finally determined as follows. […]

[3] = A431 xenograft nude mice, 20, 40 and 80 mg/kg intragastric once a day for 14 days
[4] = 20 mg/kg intragastric once a day for 14 days
[5] = 40 mg/kg intragastric once a day for 14 days
[6] = 80 mg/kg intragastric once a day for 14 days

SMILES: COCCOc1cc2ncnc(Nc3ccc(F)c(Cl)c3)c2cc1NC(=O)C=C1CCN(CCOC)CC1.CS(=O)(=O)O [Compound 3, N-[4-(3-chloro-4-fluorophenylamino)-7-(2-methoxyethoxy)quinazolin-6-yl]-2-[1-(2-methoxyethyl)piperidin-4-ylidene]acetamide dimethylsulfonate]
- Body weights of the experimental animals [1, 3]: not significantly reduced
- abnormality in the experimental animals [1, 3]: no significant abnormality was observed
- Tumor Weight (x ± S.D.) [1, 4]: 0.232 ± 0.312 g
- Tumor Inhibitor Rate [1, 4]: 68.6%
- Relative Tumor Volume (x ± S.D.) [1, 4]: 2.3 ± 1.5
- T/C [1, 4]: 30.6%
- Tumor Volume (x ± S.D.) [1, 4]: 424.9 ± 434.0*** mm^3
- Tumor Weight (x ± S.D.) [1, 5]: 0.199 ± 0.153 g
- Tumor Inhibitor Rate [1, 5]: 73.2%
- Relative Tumor Volume (x ± S.D.) [1, 5]: 2.8 ± 2.3
- T/C [1, 5]: 37.7%
- Tumor Volume (x ± S.D.) [1, 5]: 418.9 ± 284.7*** mm^3
- Tumor Weight (x ± S.D.) [1, 6]: 0.107 ± 0.126 g
- Tumor Inhibitor Rate [1, 6]: 85.6%
- Relative Tumor Volume (x ± S.D.) [1, 6]: 1.4 ± 0.9
- T/C [1, 6]: 19.1%
- Tumor Volume (x ± S.D.) [1, 6]: 254.7 ± 228.2*** mm^3
- IC50 [2]: 0.132 µM
